Results from article PMC11329505 (Communications Chemistry, 2024).

Key:
[1] = target: T1, AGAL3 (Turicibacter bilis, UniProt A0A9Q9CI38); test: pNP-αGal colorimetric assay with additive; format: biochemical; details: 5 mM maltose; pNP-αGal substrate
T1 sequence (A0A9Q9CI38 1-743): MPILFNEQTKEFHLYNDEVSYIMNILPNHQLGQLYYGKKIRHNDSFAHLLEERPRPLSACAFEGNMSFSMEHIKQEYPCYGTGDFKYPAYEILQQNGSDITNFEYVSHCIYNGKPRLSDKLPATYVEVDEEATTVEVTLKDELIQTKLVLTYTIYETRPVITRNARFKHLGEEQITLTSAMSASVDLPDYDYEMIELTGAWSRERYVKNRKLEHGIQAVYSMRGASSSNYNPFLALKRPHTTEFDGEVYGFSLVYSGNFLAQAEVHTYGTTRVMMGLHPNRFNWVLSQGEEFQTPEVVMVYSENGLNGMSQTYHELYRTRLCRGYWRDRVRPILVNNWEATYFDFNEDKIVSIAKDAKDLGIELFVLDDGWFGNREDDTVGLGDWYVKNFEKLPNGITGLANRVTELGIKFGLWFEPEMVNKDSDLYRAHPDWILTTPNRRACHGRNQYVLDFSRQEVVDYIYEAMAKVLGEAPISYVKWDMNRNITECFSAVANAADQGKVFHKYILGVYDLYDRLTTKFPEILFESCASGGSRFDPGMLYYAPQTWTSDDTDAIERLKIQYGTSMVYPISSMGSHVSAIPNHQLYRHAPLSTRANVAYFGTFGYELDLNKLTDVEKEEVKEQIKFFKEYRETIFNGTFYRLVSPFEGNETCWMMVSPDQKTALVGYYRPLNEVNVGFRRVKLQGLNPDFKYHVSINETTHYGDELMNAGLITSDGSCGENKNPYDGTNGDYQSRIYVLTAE

[2] = target: T2, AGAL5 (Blautia pseudococcoides, UniProt A0A1C7IHX3); test: pNP-αGal colorimetric assay with additive; format: biochemical; details: 5 mM maltose; pNP-αGal substrate
T2 sequence (A0A1C7IHX3 1-763): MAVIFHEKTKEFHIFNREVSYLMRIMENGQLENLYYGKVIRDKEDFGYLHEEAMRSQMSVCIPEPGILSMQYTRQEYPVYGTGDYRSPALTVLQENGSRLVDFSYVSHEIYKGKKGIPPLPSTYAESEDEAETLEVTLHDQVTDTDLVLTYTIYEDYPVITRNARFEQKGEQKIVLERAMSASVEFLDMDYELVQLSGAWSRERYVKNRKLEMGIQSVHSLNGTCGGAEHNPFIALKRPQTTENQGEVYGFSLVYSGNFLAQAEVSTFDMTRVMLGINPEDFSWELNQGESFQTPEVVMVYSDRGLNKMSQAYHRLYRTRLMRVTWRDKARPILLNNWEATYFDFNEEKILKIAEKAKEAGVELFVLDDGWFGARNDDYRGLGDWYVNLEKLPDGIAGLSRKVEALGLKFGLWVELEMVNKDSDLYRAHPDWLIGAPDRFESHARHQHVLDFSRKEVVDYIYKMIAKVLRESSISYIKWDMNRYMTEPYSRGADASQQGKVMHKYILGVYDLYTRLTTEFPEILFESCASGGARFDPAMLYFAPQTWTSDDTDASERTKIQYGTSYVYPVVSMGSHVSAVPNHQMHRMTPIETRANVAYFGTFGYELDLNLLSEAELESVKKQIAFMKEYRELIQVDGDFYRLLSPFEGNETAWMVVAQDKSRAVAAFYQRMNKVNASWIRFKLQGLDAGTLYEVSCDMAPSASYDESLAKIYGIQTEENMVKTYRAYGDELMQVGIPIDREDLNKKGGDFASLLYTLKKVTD

## OC[C@H]1O[C@H](O[C@H]2[C@H](O)[C@@H](O)C(O)O[C@@H]2CO)[C@H](O)[C@@H](O)[C@@H]1O (some centres unmarked) [maltose]
[1]
  inhibition at 5 mM: maltose had an inhibitory effect on AGAL3 and AGAL5
[2]
  inhibition at 5 mM: maltose had an inhibitory effect on AGAL3 and AGAL5
